Experiments:
PPARγ = target: T1, PPARγ (Homo sapiens, UniProt P37231); test: Gel-based screening for PPARγ binders using probe 24c-Cy3; format: binding; parameters: purchased Cayman Chemical; details: 20 μM, 1 h, then 10 μM 24c-Cy3; 19a named first, 28 second
T1 sequence (P37231 1-505): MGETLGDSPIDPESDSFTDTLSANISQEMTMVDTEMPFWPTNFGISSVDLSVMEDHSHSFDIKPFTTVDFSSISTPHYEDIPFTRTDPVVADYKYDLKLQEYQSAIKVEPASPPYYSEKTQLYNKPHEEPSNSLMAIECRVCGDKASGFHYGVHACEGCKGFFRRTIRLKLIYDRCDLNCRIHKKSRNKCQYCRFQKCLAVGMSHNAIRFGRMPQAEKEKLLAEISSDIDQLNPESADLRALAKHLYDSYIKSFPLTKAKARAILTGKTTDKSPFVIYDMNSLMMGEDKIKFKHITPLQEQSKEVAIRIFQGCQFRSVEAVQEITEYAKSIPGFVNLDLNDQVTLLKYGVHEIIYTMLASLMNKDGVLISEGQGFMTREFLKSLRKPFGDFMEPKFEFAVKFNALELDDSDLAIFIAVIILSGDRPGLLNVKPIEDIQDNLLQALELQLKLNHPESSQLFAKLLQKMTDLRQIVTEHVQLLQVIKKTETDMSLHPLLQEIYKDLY
Protocol: (c) Gel-based competitive screening of DEP and analogues as PPARγ antagonists against recombinant human enzyme (top). hPPARγ was treated with each compound (20 μM) for 1 h followed by treatment with 24c-Cy3 (10 μM) as probe. Quantification of fluorescence intensity in the competitive screening for PPARγ antagonists (bottom; values±s.d. are shown; n=3).
Briefly, recombinant human PPARγ was pretreated with compounds at 20 μM concentration followed by the probe 24c-Cy3.
Samples were then treated with 10 μM 24c-Cy3 (0.5 μl of 25 × stock in DMSO) for 1 h at room temperature in the dark. SDS–PAGE reducing loading buffer (4 ×) was added and proteins were separated using a 10% SDS–PAGE gel. Gels were visualized at 625 nm using a Hitachi FMBIO II Multi-View fluorescence scanner, then stained using silver staining. Images were quantified with ImageJ.

endogenous PPARγ = target: T2, endogenous PPARγ (Homo sapiens, UniProt P37231); test: Targeted competitive proteomics of endogenous PPARγ in Caco-2 cells; format: cell-based; details: Caco-2 cells treated in situ with 20 μM, lysate then 10 μM 24c; n=6
T2 construct: endogenous PPARγ was successfully enriched and quantified from the DMSO-treated Caco-2 cells; endogenous in cells; host or cells: Caco-2
Protocol: On the basis of the reported interaction between deoxyelephantopin and PPARγ and because MCF7 cells are known to express very low levels of this protein, we investigated in a separate experiment whether deoxyelephantopin indeed covalently binds PPARγ. The recombinant transcription factor was spiked into MCF7 lysates to 30 nM final concentration and successfully enriched by the methacrylate ester probe 24c, as evidenced from LC–MS/MS-based label-free quantification (LFQ)[48]. […] Gratifyingly, endogenous PPARγ was successfully enriched and quantified from the DMSO-treated Caco-2 cells, whereas DEP pretreatment efficiently competed PPARγ enrichment (>95%; Fig. 7a). […]
Figure 7 Identification of PPARγ as target of deoxyelephantopin and screening of DEP derivatives as PPARγ antagonists. (a) Quantification of endogenous PPARγ enriched from Caco-2 cells using 10 μM 24c following in situ treatment with DEP (20 μM) or DMSO (normalized LFQ values±s.d. are shown; n=6). […] Quantification of fluorescence intensity in the competitive screening for PPARγ antagonists (bottom; values±s.d. are shown; n=3).
Samples were analyzed by LC-MS/MS (see below) and the MS data was processed with […]
Samples were analyzed by LC-MS/MS (see below) using inclusion lists containing m/z and charge of the expected peptides of indicated proteins (see Figure 6c γ . was processed with MaxQuant (see below). […]

| SMILES | rank as covalent binder to PPARγ (competition of 24c-Cy3 labelling) (PPARγ) | competition of endogenous PPARγ enrichment by 24c (endogenous PPARγ) [%] |
| --- | --- | --- |
| C=C(C)C(=O)O[C@H]1CC2=C[C@H](C/C=C\[C@H]3OC(=O)C(=C)[C@H]13)OC2=O [19a] | most effective covalent binder | – |
| C=C(C)C(=O)O[C@H]1CC2=C[C@@H](C/C(C)=C/[C@H]3OC(=O)C(=C)[C@H]13)OC2=O [deoxyelephantopin] | – | > 95 |

Source: paper PMC4992173, “Divergent synthesis and identification of the cellular targets of deoxyelephantopins” (Nature Communications, 2016)
